Assay results reported in the NIST ThermoML archive (doi:10.1021/je400562z).

Conditions: for surface tension liquid-gas: Ring tensiometer; for mass density / viscosity: 101.33 kPa, Liquid; for viscosity: Concentric cylinders viscometry

CN(CCO)CCO [N-methyldiethanolamine]
Conditions | mass density [kg/m3] | surface tension liquid-gas [mN/m] | viscosity [mPa·s]
303.15 K | 1033.8 | 37.33 | 56.3
313.15 K | 1026.7 | – | 34.45
323.15 K | 1018.9 | – | 22.93
333.15 K | – | 35.47 | 14.99
